Patent publication US9340590B2 (priority 2011, dated 2016)
Read-outs that look alike come from different tables or passages of the source. Positions of bridges follow the written chain, without caps; N, C: chain ends. Non-standard residues stand in square brackets, D forms with d. Residues, ends and D or L forms follow the SMILES beside them. Phe(4-COOH) = N[C@@H](Cc1ccc(C(=O)O)cc1)C(=O)O

Columns and labels:
Test in all cases: cell-based
[1] = target: hNav1.7 (Homo sapiens, UniProt Q15858); assay type: cell-based; settings: IonWorks Quattro, read-out: IWQ Use Nav1.7
[2] = target: hNav1.3 (Homo sapiens, UniProt Q9NY46); settings: IonWorks Quattro, read-out: IWQ Use Nav1.3
[3] = target: hNav1.5 (Homo sapiens, UniProt Q14524); settings: IonWorks Quattro, read-out: IWQ Use Nav1.5

Sequence of hNav1.7 (Q15858 whole entry, looked up): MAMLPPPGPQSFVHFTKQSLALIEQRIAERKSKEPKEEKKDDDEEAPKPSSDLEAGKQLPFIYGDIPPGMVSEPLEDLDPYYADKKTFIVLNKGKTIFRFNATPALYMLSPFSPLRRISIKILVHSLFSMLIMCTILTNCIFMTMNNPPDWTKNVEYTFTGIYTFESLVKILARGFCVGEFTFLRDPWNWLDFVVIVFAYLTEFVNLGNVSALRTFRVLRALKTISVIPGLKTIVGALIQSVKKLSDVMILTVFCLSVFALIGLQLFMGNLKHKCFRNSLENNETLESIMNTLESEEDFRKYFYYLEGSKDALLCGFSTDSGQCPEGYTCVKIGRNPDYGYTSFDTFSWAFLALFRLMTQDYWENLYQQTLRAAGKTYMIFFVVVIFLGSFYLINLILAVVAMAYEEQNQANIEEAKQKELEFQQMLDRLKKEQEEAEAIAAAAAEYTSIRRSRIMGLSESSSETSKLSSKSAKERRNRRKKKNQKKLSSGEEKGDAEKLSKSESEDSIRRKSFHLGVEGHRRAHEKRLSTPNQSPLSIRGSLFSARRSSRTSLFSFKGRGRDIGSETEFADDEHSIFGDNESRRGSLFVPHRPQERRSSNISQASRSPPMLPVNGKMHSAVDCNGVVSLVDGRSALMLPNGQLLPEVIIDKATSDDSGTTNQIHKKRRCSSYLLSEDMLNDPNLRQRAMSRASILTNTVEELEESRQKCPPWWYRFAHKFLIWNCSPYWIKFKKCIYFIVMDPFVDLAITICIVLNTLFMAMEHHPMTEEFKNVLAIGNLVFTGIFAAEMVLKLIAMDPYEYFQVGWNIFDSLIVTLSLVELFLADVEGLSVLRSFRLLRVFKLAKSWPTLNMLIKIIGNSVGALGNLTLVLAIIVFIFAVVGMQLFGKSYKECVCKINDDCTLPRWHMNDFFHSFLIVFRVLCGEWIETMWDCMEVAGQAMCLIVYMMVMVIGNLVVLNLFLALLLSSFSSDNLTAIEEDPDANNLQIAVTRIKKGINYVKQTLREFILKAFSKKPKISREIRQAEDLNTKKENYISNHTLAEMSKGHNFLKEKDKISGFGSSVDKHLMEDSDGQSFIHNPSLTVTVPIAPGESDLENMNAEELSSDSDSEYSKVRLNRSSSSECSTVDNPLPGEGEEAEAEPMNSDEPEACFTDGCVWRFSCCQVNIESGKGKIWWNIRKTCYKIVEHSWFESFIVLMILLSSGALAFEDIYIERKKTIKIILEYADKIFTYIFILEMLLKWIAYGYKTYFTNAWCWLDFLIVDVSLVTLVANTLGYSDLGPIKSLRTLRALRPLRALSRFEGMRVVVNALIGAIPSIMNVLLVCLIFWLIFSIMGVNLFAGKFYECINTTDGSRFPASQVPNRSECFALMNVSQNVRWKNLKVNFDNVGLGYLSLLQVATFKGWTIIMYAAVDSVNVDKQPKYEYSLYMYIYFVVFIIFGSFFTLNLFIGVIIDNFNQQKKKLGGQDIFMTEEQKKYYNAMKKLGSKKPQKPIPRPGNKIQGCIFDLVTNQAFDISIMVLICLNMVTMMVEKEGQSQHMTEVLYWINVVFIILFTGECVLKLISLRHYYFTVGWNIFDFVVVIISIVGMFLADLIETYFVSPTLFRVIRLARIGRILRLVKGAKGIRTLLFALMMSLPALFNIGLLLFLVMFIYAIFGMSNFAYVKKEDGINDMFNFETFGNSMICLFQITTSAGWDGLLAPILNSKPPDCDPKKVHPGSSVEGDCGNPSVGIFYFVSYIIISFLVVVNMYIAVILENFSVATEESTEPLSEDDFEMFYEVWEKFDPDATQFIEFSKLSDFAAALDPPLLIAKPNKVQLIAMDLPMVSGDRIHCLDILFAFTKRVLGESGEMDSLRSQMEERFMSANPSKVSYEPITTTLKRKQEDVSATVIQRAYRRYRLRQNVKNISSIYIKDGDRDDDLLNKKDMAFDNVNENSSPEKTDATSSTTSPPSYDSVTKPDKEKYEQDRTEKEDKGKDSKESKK
Sequence of hNav1.3 (Q9NY46 whole entry, looked up): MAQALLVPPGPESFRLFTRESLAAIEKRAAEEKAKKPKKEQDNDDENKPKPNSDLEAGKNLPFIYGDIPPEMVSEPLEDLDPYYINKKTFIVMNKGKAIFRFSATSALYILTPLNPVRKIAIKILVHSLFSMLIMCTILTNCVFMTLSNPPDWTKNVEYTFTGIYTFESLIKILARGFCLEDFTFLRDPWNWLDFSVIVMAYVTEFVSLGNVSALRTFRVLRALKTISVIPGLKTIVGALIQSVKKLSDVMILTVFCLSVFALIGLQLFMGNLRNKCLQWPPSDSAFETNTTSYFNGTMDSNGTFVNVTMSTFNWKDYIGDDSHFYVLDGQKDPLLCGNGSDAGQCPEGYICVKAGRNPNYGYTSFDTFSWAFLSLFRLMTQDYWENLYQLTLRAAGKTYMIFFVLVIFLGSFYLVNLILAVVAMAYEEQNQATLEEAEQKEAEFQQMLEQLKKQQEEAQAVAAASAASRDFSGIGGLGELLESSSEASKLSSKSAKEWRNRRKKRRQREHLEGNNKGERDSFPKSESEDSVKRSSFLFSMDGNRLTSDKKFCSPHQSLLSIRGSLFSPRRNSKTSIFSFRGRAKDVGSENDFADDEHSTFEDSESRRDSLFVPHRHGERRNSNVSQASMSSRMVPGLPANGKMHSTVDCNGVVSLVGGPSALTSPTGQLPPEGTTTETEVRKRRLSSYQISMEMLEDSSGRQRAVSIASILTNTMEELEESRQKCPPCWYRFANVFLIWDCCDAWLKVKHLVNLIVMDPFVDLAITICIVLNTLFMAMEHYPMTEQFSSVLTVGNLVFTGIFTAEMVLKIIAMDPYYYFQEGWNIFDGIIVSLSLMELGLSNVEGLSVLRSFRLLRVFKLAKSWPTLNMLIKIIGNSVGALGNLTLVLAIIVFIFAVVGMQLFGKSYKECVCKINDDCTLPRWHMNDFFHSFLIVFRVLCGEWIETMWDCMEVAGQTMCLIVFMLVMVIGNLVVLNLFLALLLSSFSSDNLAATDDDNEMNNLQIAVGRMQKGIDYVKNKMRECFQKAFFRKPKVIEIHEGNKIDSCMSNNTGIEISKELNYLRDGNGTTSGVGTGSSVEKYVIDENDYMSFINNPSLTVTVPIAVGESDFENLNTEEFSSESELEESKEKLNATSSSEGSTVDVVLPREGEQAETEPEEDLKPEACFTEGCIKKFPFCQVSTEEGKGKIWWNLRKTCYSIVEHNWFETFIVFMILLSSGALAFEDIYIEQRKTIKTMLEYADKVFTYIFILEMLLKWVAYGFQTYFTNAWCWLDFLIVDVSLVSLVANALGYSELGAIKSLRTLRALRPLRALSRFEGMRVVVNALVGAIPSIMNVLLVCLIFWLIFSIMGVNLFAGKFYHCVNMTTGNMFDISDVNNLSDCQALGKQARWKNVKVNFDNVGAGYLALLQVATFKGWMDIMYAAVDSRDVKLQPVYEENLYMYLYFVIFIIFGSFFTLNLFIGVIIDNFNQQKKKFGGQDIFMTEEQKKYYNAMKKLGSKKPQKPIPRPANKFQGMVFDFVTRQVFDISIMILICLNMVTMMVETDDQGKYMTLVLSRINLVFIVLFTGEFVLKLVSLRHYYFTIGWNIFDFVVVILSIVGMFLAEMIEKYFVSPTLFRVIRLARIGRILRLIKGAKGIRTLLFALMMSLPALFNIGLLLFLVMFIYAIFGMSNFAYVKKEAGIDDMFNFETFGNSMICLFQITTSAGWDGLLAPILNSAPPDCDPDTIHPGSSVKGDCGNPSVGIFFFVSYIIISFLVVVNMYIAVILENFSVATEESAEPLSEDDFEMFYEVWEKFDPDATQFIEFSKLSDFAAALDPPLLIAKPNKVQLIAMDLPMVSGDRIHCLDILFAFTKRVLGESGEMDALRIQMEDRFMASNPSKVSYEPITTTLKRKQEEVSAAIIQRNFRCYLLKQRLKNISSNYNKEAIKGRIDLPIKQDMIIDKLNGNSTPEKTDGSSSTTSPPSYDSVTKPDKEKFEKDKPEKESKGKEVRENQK

CC[C@H](C)[C@@H]1NC(=O)[C@@H]2CSSC[C@@H]3NC(=O)[C@H](C(C)C)NC(=O)[C@H](CC(C)C)NC(=O)[C@H](CC(N)=O)NC(=O)[C@@H]4CCCN4C(=O)[C@H](CCCNC(=N)N)NC(=O)[C@H](CSSC[C@H](NC(=O)[C@@H](N)CC(=O)O)C(=O)N[C@@H](CC(C)C)C(=O)NCC(=O)N[C@@H](Cc4ccccc4)C(=O)N[C@@H](CCSC)C(=O)N[C@@H](CCCNC(=N)N)C(=O)N[C@@H](CCCCN)C(=O)N2)NC(=O)[C@H](CSSC[C@@H](C(=O)N[C@@H](CCCCN)C(=O)N[C@@H](Cc2ccc(O)cc2)C(=O)N[C@@H](Cc2ccc(C(=O)O)cc2)C(=O)N[C@@H](Cc2ccccc2)C(N)=O)NC(=O)[C@H](Cc2c[nH]c4ccccc24)NC(=O)[C@H](CCCCN)NC(=O)[C@H](Cc2c[nH]cn2)NC(=O)[C@H]([C@@H](C)O)NC(=O)[C@H](CCCNC(=N)N)NC(=O)[C@H](CO)NC3=O)NC(=O)[C@H](CCCCN)NC(=O)[C@H](CC(=O)O)NC(=O)[C@H](CC(N)=O)NC(=O)[C@H](CC(=O)O)NC(=O)[C@@H]2CCCN2C1=O [compound 403] (H-DCLGFMRKCIPDNDKCCRPNLVCSRTHKWCKY[Phe(4-COOH)]F-NH2; disulfide 2-17, 9-23, 16-30)
IC50 ([1]; Table 26, use, […]): 160 nM | IC50 ([2]; Table 26, use, […]): 310 nM | IC50 ([3]; Table 26, use, […]): 9060 nM

CC[C@H](C)[C@@H]1NC(=O)[C@@H]2CSSC[C@@H]3NC(=O)[C@H](C(C)C)NC(=O)[C@H](CC(C)C)NC(=O)[C@H](CC(N)=O)NC(=O)[C@@H]4CCCN4C(=O)[C@H](CCCNC(=N)N)NC(=O)[C@H](CSSC[C@H](NC(=O)[C@@H](N)CC(=O)O)C(=O)N[C@@H](CC(C)C)C(=O)NCC(=O)N[C@@H](C)C(=O)N[C@@H](Cc4ccccc4)C(=O)N[C@@H](CCCNC(=N)N)C(=O)N[C@@H](CCCCN)C(=O)N2)NC(=O)[C@H](CSSC[C@@H](C(=O)N[C@@H](CCCCN)C(=O)N[C@@H](Cc2ccc(O)cc2)C(=O)N[C@H](C(=O)N[C@@H](Cc2ccccc2)C(=O)O)C(C)C)NC(=O)[C@H](Cc2c[nH]c4ccccc24)NC(=O)[C@@H]2CCCN2C(=O)[C@H](Cc2c[nH]cn2)NC(=O)[C@H]([C@@H](C)O)NC(=O)[C@H](CCCNC(=N)N)NC(=O)[C@H](CO)NC3=O)NC(=O)[C@H](CCCCN)NC(=O)[C@H](CC(=O)O)NC(=O)[C@H](CC(N)=O)NC(=O)[C@H](CC(=O)O)NC(=O)[C@@H]2CCCN2C1=O [compound 833] (H-DCLGAFRKCIPDNDKCCRPNLVCSRTHPWCKYVF-OH; disulfide 2-17, 9-23, 16-30)
IC50 ([1]; use-dependent block, hNav1.7): > 5000 nM | IC50 ([2]; use-dependent block, hNav1.3): > 5000 nM | IC50 ([3]; use-dependent block, hNav1.5): > 5000 nM

CC[C@H](C)[C@@H]1NC(=O)[C@@H]2CSSC[C@@H]3NC(=O)[C@H](C(C)C)NC(=O)[C@H](CC(C)C)NC(=O)[C@H](CC(N)=O)NC(=O)[C@H](CO)NC(=O)[C@H](CO)NC(=O)[C@H](CCCNC(=N)N)NC(=O)[C@H](CSSC[C@H](NC(=O)[C@@H](N)CC(=O)O)C(=O)N[C@@H](CC(C)C)C(=O)NCC(=O)N[C@@H](Cc4ccccc4)C(=O)N[C@@H](CCSC)C(=O)N[C@@H](CCCNC(=N)N)C(=O)N[C@@H](CCCCN)C(=O)N2)NC(=O)[C@H](CSSC[C@@H](C(=O)N[C@@H](CCCCN)C(=O)N[C@@H](Cc2ccc(O)cc2)C(=O)N[C@H](C(=O)N[C@@H](Cc2ccccc2)C(N)=O)C(C)C)NC(=O)[C@H](Cc2c[nH]c4ccccc24)NC(=O)[C@H](CCCCN)NC(=O)[C@H](Cc2c[nH]cn2)NC(=O)[C@H]([C@@H](C)O)NC(=O)[C@H](CCCNC(=N)N)NC(=O)[C@H](CO)NC3=O)NC(=O)[C@H](CCCCN)NC(=O)[C@H](CC(=O)O)NC(=O)[C@H](CC(N)=O)NC(=O)[C@H](CC(=O)O)NC(=O)[C@@H]2CCCN2C1=O [SEQ ID NO: 93, [Ser-Ser19]GpTx-1] (H-DCLGFMRKCIPDNDKCCRSSNLVCSRTHKWCKYVF-NH2; disulfide 2-17, 9-24, 16-31)
IC50 ([1]; Use): 270 nM | IC50 ([2]; Use): 320 nM | IC50 ([3]; Use): 13900 nM
